This is an account of results in patent publication EP3260120B1, “PHARMACOLOGICAL ADJUVANTS FOR THERMAL ABLATION OF CANCER” (Blasi, Paolo, priority 2016, dated 2017).

For the data set, the system named is human colon adenocarcinoma HT-29 cell line. Nature of the data set: thermosensitizing or killing effect on HT-29 cells (cell count, ethidium bromide / fluorescein diacetate viability). In kind it is cell-based. The settings on record: for Viability (%) / Total cells (x10^6) / Living cells (x10^6): mean ± S.D.; for Living cells (x10^6): viability % applied to total cells. As for the experimental part: The thermosensitizing or killing effect of omeprazole in acidic solution and that of liposome formulations was tested on human colon adenocarcinoma HT-29 cell line (Istituto Zooprofilattico Ubertini, Brescia, Italy). The cells were incubated under standard conditions: 5% CO2, 37°C, in McCOY'S 5A medium (Sigma-Aldrich, Milan, Italy) at pH 7.4 with sodium bicarbonate, antibiotics and antifungals (penicillin 100 U/mL, streptomycin 100 U/mL, amphotericin B 0.25 µg/mL) and 10% foetal bovine serum. A trypsin solution with EDTA was employed to detach the cells from the culture plates. The experimental protocol is reported in the following scheme: [formula] In detail: • 1)-HT-29 cells were seeded in 6-well culture plates (Falcon) with a 10 cm^2 area at a 250,000 cell/well concentration and 5 mL medium as indicated above. • 2)-After 72 h plating, the culture medium, with initial buffered pH=7.4, was replaced with unbuffered medium (without sodium bicarbonate), and 12 wells were maintained at 37°C, while 12 wells were destined for thermal treatment. In each group, three wells were treated with omeprazole in acidic solution, three with LUVs with acidic core and three with LUVs loaded with omeprazole in acidic solution, according to the concentrations reported in the previous scheme. […] At the end of the thermal treatment the cells were brought back into the incubator at 37°C. • 4)-After 24 h, the following parameters were evaluated for all the wells: Total number of cells (living and dead). After detachment of the cell monolayer with trypsin and EDTA, the total number of cells (living + dead) in each well was determined using a Countess cell counting machine (Invitrogen, Milan, Italy). Cell viability (%). Cell viability was evaluated by incubation of a detached cell suspension with ethidium bromide and fluorescein diacetate (Sigma-Aldrich, Milan, Italy). The cells were analysed with a fluorescent optical microscope (Olympus BX-41, Tokyo, Japan) using the filter for fluorescein. The images were recorded with an F-view digital camera (Olympus) and processed with F-view software (Olympus). With this method, the living cells are stained green and the dead cells red, as fluorescein diacetate is internalized by living cells and hydrolysed by cytoplasm esterases into the corresponding fluorochrome, fluorescein, which emits an intense green fluorescence, whereas ethidium bromide only penetrates cells with altered membranes, binding to nucleic acids and producing a red fluorescence. The living and dead cells were counted by a semi-manual method. A minimum of three images per well were acquired in distinct areas, representative of the corresponding cell suspension. For the group maintained at 37°C, an average of 2,500 cells was counted for each treatment type (constituted by three wells representing the single treatment performed in triplicate). Since the number of cells decreases noticeably for the wells treated at 45°C for 2 h, the number of recorded images was increased (from 9 to 16), and 2,700 to 3,500 cells were counted for each treatment type (constituted by three wells representing the single treatment performed in triplicate). Living cell (green) and dead cell (red) counts were acquired by marking each cell and recording the resulting cell number with Image J software. The percentage viability of the cells counted for each sample was calculated as follows: Viability(%) = (No. of living cells)/(No. of living cells + No. of dead cells)⋅100 [formula] Total number of living cells. The endpoint of the study was the total number of tumour cells surviving the different treatments. This value was calculated for each well by applying the viability percentage obtained by semi-manual counting to the total number of cells measured by the cell-counting machine. Statistical analysis. The data were subjected to statistical analysis with the paired Student's t-test and one-way ANOVA (SigmaPlot 12.0, Systat Software Inc.) with a 95% significance level. […]

Setting [1] is: 37°C, 48 h incubation with treatment.
Setting [2] is: 45°C for 2h after 24 h pre-incubation, evaluated 24 h after thermal treatment.

Take `COc1ccc2[nH]c([S+]([O-])Cc3ncc(C)c(OC)c3C)nc2c1` (centres unmarked) [B, omeprazole]: under setting [1], the “Viability (%)” value is 83.3 ± 2.4% and the “Living cells (x10^6)” value is 1.53 ± 0.22 x10^6. Also, under “37°C, 48 h of incubation”, the “decrease in number of surviving tumour cells versus untreated control” value is on record as 25%. Besides, the “Total cells (x10^6)” value (37°C, living and dead cells per well, 48 h incubation with treatment) is 1.83 ± 0.25 x10^6. Besides, the “reduction in number of living cells compared to heating only” value (45°C for 2 h, 24 h after heat shock) is listed as 41%. Besides, under setting [2], the “Total cells (x10^6)” value is on record as 0.66 ± 0.27 x10^6, the “Viability (%)” value was determined as 61.5 ± 4.4% and the “Living cells (x10^6)” value is reported as 0.40 ± 0.10 x10^6.
